SMILES strings stand for the structures. Active and inactive are the calls of the source. The rule behind the calls is not given here.

We go through eleven compounds from ChEMBL document CHEMBL2040811, “Synthesis and biological evaluation of new homocamptothecin analogs” (Eur J Med Chem, 2012).

The nature of data set [1]: Stability of the compound assessed as retention of lactone group at pH 7 after 8 hrs in presence of human serum albumin by HPLC analysis. Format: ADME. The following applies: for remaining at 8 h: human serum albumin solution, pH 7, read-out: Stability; for Stability: buffer, pH 7, 8 h.
A further data set concerns A549. As to the kind of experiment: Cytotoxicity against human A549 after 72 hrs by SRB assay. Format: functional, cell-based. To be noted: A549, 72 h. A general note: In SRB staining, fixed cells bind dye roughly in proportion to their protein.
Data set [2] is described as follows: Stability of the compound assessed as retention of lactone group in phosphate buffer at pH 7 after 8 hrs by HPLC analysis. To be noted: for remaining at 8 h: phosphate buffer, pH 7, read-out: Stability; for Stability: buffer, pH 7, 8 h. The class given is physicochemical.
The next data set concerns HCT-116. As to the kind of experiment: Cytotoxicity against human HCT116 after 72 hrs by SRB assay. The class given is functional, cell-based. The following applies: HCT-116, 72 h.
The target of data set [3] is T1, DNA topoisomerase 1 (Homo sapiens) (UniProt P11387).
T1 sequence (whole entry): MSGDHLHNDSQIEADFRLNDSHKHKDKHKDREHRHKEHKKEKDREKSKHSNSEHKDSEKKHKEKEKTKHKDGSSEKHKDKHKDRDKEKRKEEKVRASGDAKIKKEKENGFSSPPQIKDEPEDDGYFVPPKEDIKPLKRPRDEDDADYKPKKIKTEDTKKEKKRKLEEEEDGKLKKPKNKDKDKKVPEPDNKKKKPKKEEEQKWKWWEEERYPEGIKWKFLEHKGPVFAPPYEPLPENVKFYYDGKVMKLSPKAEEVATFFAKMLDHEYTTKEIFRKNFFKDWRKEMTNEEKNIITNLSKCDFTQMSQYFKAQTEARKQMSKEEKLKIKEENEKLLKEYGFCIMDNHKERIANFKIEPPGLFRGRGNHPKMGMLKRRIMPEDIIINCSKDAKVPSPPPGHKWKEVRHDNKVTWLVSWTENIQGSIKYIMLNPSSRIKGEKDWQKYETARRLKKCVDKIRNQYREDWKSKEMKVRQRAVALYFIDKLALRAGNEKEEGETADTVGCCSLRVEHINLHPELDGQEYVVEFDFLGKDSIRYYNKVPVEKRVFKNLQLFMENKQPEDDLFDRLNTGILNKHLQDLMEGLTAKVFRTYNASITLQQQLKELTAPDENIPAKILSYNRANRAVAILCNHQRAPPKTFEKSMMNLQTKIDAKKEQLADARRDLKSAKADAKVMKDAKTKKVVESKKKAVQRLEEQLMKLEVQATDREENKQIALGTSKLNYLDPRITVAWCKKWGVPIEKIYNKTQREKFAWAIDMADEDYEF
As to the kind of experiment: Inhibition of topo 1-mediated relaxation of supercoiled pBR322 at 10 to 100 uM after 30 mins using ethidium bromide by agarose-gel electrophoresis.

On to `CC[C@]1(O)c2cc3n(c(=O)c2COC(=O)[C@@H]1OC(C)=O)Cc1cc2cc4c(cc2nc1-3)OCCO4`, for which the remaining at 8 h in data set [1] amounted to 55%; in data set [2], 90%. The IC50 (as a rule, the concentration that gives 50% inhibition) in the data set on A549 was determined as 4.6 nM; with HCT-116 it was 4.9 nM. Moreover, the inhibition entry in data set [3] is “Active”.

As for `CC[C@]1(O)c2cc3n(c(=O)c2COC(=O)[C@@H]1OC(C)=O)Cc1cc2ccccc2nc1-3`, the Stability entry in data set [1] and in data set [2] was “Stable” throughout. In addition, the IC50 worked out at 49.2 nM in the data set on A549 and 14.2 nM in the data set on HCT-116. Besides, the inhibition result in data set [3] is “Active”.

As for `CC[C@]1(O)c2cc3n(c(=O)c2COC(=O)[C@@H]1O)Cc1cc2ccccc2nc1-3`, the Stability entry in data set [1] and in data set [2] was “Stable” throughout. The IC50 was found to be 16.8 nM with A549 and 49.3 nM with HCT-116. The inhibition entry in data set [3] was “Active”.

On to `CC[C@]1(O)c2cc3n(c(=O)c2COC(=O)[C@@H]1O)Cc1cc2cc(OC)ccc2nc1-3`, for which the IC50 in the data set with A549 was determined as 4.8 nM; in the data set on HCT-116, 10.6 nM. In addition, the inhibition result in data set [3] was “Active”.

Take `CC[C@]1(O)c2cc3n(c(=O)c2COC(=O)[C@@H]1OC(C)=O)Cc1cc2cc4c(cc2nc1-3)OCO4`: the Stability entry in data set [1] and in data set [2] was “Stable” in each case. Further, the IC50 in the data set on A549 came out at 1.2 nM; with HCT-116 it was 2.1 nM. For the same compound, in data set [3], the inhibition entry is “Active”.

Turning to `CC[C@@]1(O)C(=O)OCc2c1cc1n(c2=O)Cc2cc3ccccc3nc2-1` [CAMPTOTHECIN], the remaining at 8 h was 20% in data set [1] and below 40% in data set [2]. Besides, the concentration for half-maximal inhibition (IC50) was 33.8 nM in the data set on A549 and 22.9 nM in the data set with HCT-116.

With `CC[C@]1(O)c2cc3n(c(=O)c2COC(=O)[C@@H]1O)Cc1cc2cc4c(cc2nc1-3)OCO4`, the IC50 in the data set on A549 and in the data set on HCT-116 was 3.1 nM throughout. Moreover, the inhibition entry in data set [3] was “Active”.

Consider `CCc1c2c(nc3ccc(O)cc13)-c1cc3c(c(=O)n1C2)COC(=O)[C@]3(O)CC`, for which the inhibition entry in data set [3] is “Active”.

`CC[C@@]1(O)C(=O)OCc2c1cc1n(c2=O)Cc2cc3cc(O)ccc3nc2-1` [HYDROXYCAMPTOTHECIN]: the half-inhibitory concentration (IC50) in the data set on A549 stood at 33.6 nM; with HCT-116 it was 31.2 nM. The inhibition entry in data set [3] is “Active”.

With `CC[C@]1(O)c2cc3n(c(=O)c2COC(=O)[C@@H]1O)Cc1cc2cc4c(cc2nc1-3)OCCO4`, the IC50 in the data set on A549 was determined as 2.9 nM; with HCT-116 it was 3.4 nM. Moreover, the inhibition entry in data set [3] was “Active”.

For the compound `CC[C@]1(O)c2cc3n(c(=O)c2COC(=O)[C@@H]1OC(C)=O)Cc1cc2cc(OC)ccc2nc1-3`, the figures for the IC50 in the data set with A549 and in the data set with HCT-116 were 4.7 nM and 4.4 nM, respectively. Besides, the inhibition result in data set [3] is “Active”.
